Laboratory results reported in patent publication US7078059B2, “Treatment of bone diseases” (Shire Holdings AG, priority 2000, dated 2006).
Where “and” joins values, the source holds several entries; their conditions need not be identical. Equal values may be shown once.

Columns and labels:
[1] = tested on: osteoclasts cultured on bone slices; experiment: In vitro bone resorption assay (osteoclasts on bovine bone slices, CrossLaps); type: cell-based, rat; details: Control = Baseline+10 nM bafilomycin Al
Description: The method of osteoclast culture on bone slices was originally described by Boyde et al. (1984) and by Chambers et al. (1984). For cell culture, we used a method slightly modified from the original methods (Lakkakorpi et al. 1989, Lakkakorpi and Väänänen, 1991). The rate of bone resorption in the cultures was originally determined by counting the number of resorption pits on each bone or dentine slice using a microscope with phase contrast objectives (Sundquist et al. 1990). Later, the pits were visualized using Wheat Germ Agglutinin lectin that specifically binds to the resorbed area in bone (Selander et al. 1994), making it possible to quantify the total resorbed area using a microscope and computer-assisted image analysis system (Laitala and Väänänen 1994, Hentunen et al. 1995). We used a commercially available method (CrossLaps for cultures, Osteometer Biotech, Herlev, Denmark) to detect the amount of collagen cross-links released into the culture medium as an index of the bone resorption rate (Bagger et al., 1999).
The study protocol uses a method where osteoclasts are cultured on bone slices and allowed to resorb bone. The system is ideal for determining the effect of drug candidates on the bone resorbing activity of osteoclasts. Drug candidates are added into the cell cultures at the beginning of the culture period, and the osteoclasts allowed to resorb bone for 3 days. The amount of bone resorbed during the culture period is determined and compared to the amount of bone resorbed in control cultures (those cultured in the absence of drug candidates).
Transverse 0.1 mm thick slices of cortical bone were cut from the diaphysis of fresh bovine femurs (Atria Slaughterhouse, Oulu, Finland) using a low-speed diamond saw, cleaned by ultrasonication in multiple changes of sterile distilled water, and stored at 4° C. before use. Long bones were removed from 1-day-old rat pups killed by decapitation. […] The resulting suspension of dispersed cells and bone fragments was agitated using a plastic pipette. Larger fragments were allowed to sediment for a few seconds and the supernatant was seeded onto the bone slices pre-wetted in the medium. After a settling period of 30 minutes at 37° C., the bone slices were washed by dipping in fresh medium, and then transferred to wells in 24-well culture dishes containing osteoclast culture medium. The bone slices were incubated in a humidified atmosphere of 95% air and 5% carbon dioxide at 37° C. for 72 hours.
After the culture period, the amount of bone resorption was determined by measuring the amount of collagen cross-links released into the culture medium using a commercial kit (CrossLaps for cultures, Osteometer Biotech) according to the manufacturer s instructions. The number of osteoclasts in each culture was determined by microscopic counting of the amount of TRAP-positive multinuclear cells, and the results are given as the number of collagen cross-links released per one osteoclast.
In the bone resorption assay, the amount of medium CrossLaps (nM) released into the culture medium was determined and the number of osteoclasts in the corresponding cultures calculated. The medium CrossLaps amounts were divided with the osteoclast numbers in the corresponding cultures, and the results are given on Table 1 as relative medium CrossLaps amounts per osteoclasts. The relative values were obtained by dividing each individual value with the mean value of the baseline group.

mature osteoblasts = experiment: In vitro bone formation assay (calcium deposition into bone nodules); type: cell-based, mouse; details: LA number = ng/ml lanthanum
Experimental: The activity of mature osteoblasts can be determined by quantifying their ability to form mineralized bone matrix. This is done by demineralizing the formed bone matrix, and determining the amount of calcium released. Thus, this culture system fulfills requirements of an in vitro model useful for studying the bone formation activity of mature osteoblasts. […] At the end of the culture, the amount of calcium deposited during the culture period was determined, and the amount of bone formation (calcium deposition) calculated. […] Extracts of 50 μl were complexed with 1 ml determined o-cresol-phthalein-complexon. The colorimetric reaction was determined at 570 nm in a spectrophotometer. Absolute calcium concentrations were determined by comparison with a calibrated standard provided by the vendor. In this study, the effect of lanthanum carbonate on bone formation was tested. […] The amount of bone formation was determined by measuring the amount of calcium deposited into bone nodules formed by mature osteoblasts. The results are shown as the amount of calcium released (mmol/L) from the bone nodules after HCl extraction. The baseline values are too low to show the results using relative amounts as was done in the other assays.

[2] = second bone resorption assay, relative to mean of baseline group, 72 hours, LA number = ng/ml lanthanum
[3] = first bone formation assay, calcium released from bone nodules after HCl extraction, Control = Baseline+10^−10M 17β-estradiol
[4] = preliminary bone formation assay, calcium released from bone nodules after HCl extraction, Control = Baseline+10^−10M 17β-estradiol
[5] = second bone formation assay, calcium released from bone nodules after HCl extraction, Control = Baseline+10^−10M 17β-estradiol

## O.O.O.O.O=C([O-])[O-].O=C([O-])[O-].O=C([O-])[O-].[La+3].[La+3] [LA 1000, lanthanum carbonate tetrahydrate]
[1]; first bone resorption assay, relative to mean of baseline group, 72 hours, LA number = ng/ml lanthanum in culture medium
  Relative medium CrossLaps amounts per osteoclast, replicates 1-6: 1.14 and 1.09 and 0.89 and 1.76 and 1.07 and 1.11
[1]; first bone resorption assay, relative to mean of baseline group, 72 hours, LA number = ng/ml lanthanum
  Relative medium CrossLaps amounts per osteoclast, Mean ± SD: 1.18 ± 0.30
[1]; [2]
  Relative medium CrossLaps amounts per osteoclasts, Mean ± SD: 1.13 ± 0.51
  Relative medium CrossLaps amounts per osteoclasts, replicates 1-6: 0.70 and 0.59 and 1.69 and 1.40 and 1.68 and 0.73
[1]; tables 1 and 2 combined, number 12, LA number = ng/ml lanthanum
  Combined results on bone resorption (relative medium CrossLaps per osteoclast), Mean ± SD: 1.15 ± 0.40
Mature osteoblasts; lanthanum (III) / lanthanum (III) ion = all concentrations tested, 100 to 15,000 ng/ml, 17-estradiol 10^−10M
  Effect on bone formation activity of mature osteoblasts, in words: stimulate bone formation
Mature osteoblasts; [3]
  Calcium deposition, Mean ± SD: 1.29 ± 0.28 mmol/L
  Calcium deposition, replicates 1-6: 0.95 mmol/L and 1.66 mmol/L and 1.47 mmol/L and 1.41 mmol/L and 1.00 mmol/L and 1.25 mmol/L
Mature osteoblasts; [4]
  Calcium deposition, Mean ± SD: 0.07 ± 0.05 mmol/L
  Calcium deposition, replicates 1-4: 0.10 mmol/L and 0 mmol/L and 0.11 mmol/L and 0.05 mmol/L
Mature osteoblasts; [5]
  Calcium deposition, Mean ± SD: 1.14 ± 0.55(* mmol/L
  Calcium deposition, replicates 1-8: 1.76 mmol/L and 0.02 mmol/L and 1.52 mmol/L
Mature osteoblasts; tables 13 and 14 combined, number 14, Control = Baseline+10^−10M 17β-estradiol
  Combined results on bone formation activity of mature osteoblasts (calcium released), Mean ± SD: 1.20 ± 0.45 mmol/L
